Results on 66 compounds are retold here after the SangsterLogP compilation.

Molecules are shown by their SMILES.

The first series in a line: method code SF-RC, from DOI: 10.1016/0361-9230(85)90153-4, PMID: 2413968.
Details: not given
As usually defined, the logP is the decadic logarithm of the partition coefficient of the neutral form, usually between octanol and water. A lower logP goes with a more hydrophilic compound. `NC(=O)[C@@H]1CCCN1C(=O)[C@H](Cc1cnc[nH]1)NC(=O)[C@@H]1CCC(=O)N1` had a log partition coefficient (logP) of -1.42. `CCNC(=O)[C@@H]1CCCN1C(=O)[C@H](CCCN=C(N)N)NC(=O)[C@H](CC(C)C)NC(=O)[C@@H](COC(C)(C)C)NC(=O)[C@H](Cc1ccc(O)cc1)NC(=O)[C@H](CO)NC(=O)[C@H](Cc1c[nH]c2ccccc12)NC(=O)[C@H](Cc1cnc[nH]1)NC(=O)[C@@H]1CCC(=O)N1` had a logP of -1.35. For `CSCC[C@H](NC(=O)[C@H](CC(C)C)NC(=O)CNC(=O)[C@H](Cc1ccccc1)NC(=O)[C@H](Cc1ccccc1)NC(=O)[C@H](CCC(N)=O)NC(=O)[C@H](CCC(N)=O)NC(=O)[C@@H]1CCCN1C(=O)[C@H](CCCCN)NC(=O)[C@@H]1CCCN1C(=O)[C@@H](N)CCCN=C(N)N)C(N)=O`, the logP was -0.56.

Assay in the next series: not given
Details: not given
The compound `CC(C)N(CCC(CCC1CCCCC1)(C(N)=O)c1ccccc1Cl)C(C)C` (stereo unspecified) showed a logP of 4.23.

`CC(C)N(CCC(C(N)=O)c1ccccc1Cl)C(C)C` (stereo unspecified): the lipophilicity (logP) amounted to 2.83. On the same count and under the same terms, to `CC(C)N(CCC(C(N)=O)c1ccc(-c2ccccc2)cc1)C(C)C` (stereo unspecified) belongs 3.66.

Another series can be described thus: method code SF-HPLC, from DOI: 10.1016/s0021-9673(99)01336-9, PMID: 10757301.
Details: not given
On to `CC(=O)OCC1=C(C(=O)O)N2C(=O)[C@@H](NC(=O)CSc3ccncc3)[C@H]2SC1`, for which the logP was -0.15. For the compound `CC(=O)OCC1=C(C(=O)O)N2C(=O)C(NC(=O)Cc3cccs3)C2SC1` (stereo unspecified), the logP worked out at 0.08.

On to `CO/N=C(\C(=O)N[C@@H]1C(=O)N2C(C(=O)O)=C(COC(C)=O)CS[C@H]12)c1csc(N)n1`, for which the log partition coefficient (logP) was -0.13.

Assay in the next series: not given
Details: not given
This is another data set of the same source.
With `C[C@]12C=CC(=O)C=C1CC[C@@H]1[C@@H]2C(=O)C[C@@]2(C)[C@H]1CC[C@]2(O)C(=O)CO`, the logP stood at 1.6. The same measure, in the same setting: to `CCCCNc1cc(C(=O)O)cc(S(N)(=O)=O)c1Oc1ccccc1` belongs 3.21; to `COC(=O)C1=C(C)NC(C)=C(C(=O)OC(C)C)[C@H]1c1cccc2nonc12`, 3.75.

Assay in another series: not given
Details: not given
This is another data set of the same source.
For the compound `CCc1c(Sc2ccccc2)n(COCc2ccccc2)c(S)nc1=O`, the logP was determined as 3.44. On the same count and under the same terms, to `CCOCn1c(Cc2cc(C)cc(C)c2)c(C(C)C)c(=O)[nH]c1=O` belongs 3.46; to `CCOCn1c(Cc2ccccc2)c(CC)c(=O)[nH]c1=O`, 0.74.

The next series is described as follows: method code SF, from PMID: 8999431. Particulars: pH 7.4.
Usually logD stands for lipophilicity at a set pH, counting ionised and neutral species. The low end stands for a more hydrophilic compound, the high end for a more lipophilic compound. With `CCOC(=O)CNC(=O)c1cn(CC)c2nc(C)ccc2c1=O`, the logD was found to be 2.07. On to `CCn1cc(C(=O)NC(C)C(=O)OC)c(=O)c2ccc(C)nc21` (stereo unspecified), for which the pH-dependent lipophilicity (logD) was 2.47. The same measure, in the same setting: to `CCn1cc(C(=O)NC(CC(C)C)C(=O)OC)c(=O)c2ccc(C)nc21` (stereo unspecified) belongs 3.15.

Assay in the next series: not given
Details: not given
This is another data set of the same source.
The compound `CCc1nc(S(=O)(=O)Nc2c(F)cccc2F)nn1-c1ccccc1` returned a log partition coefficient (logP) of 3.7.

In the case of `Cc1nc(S(=O)(=O)Nc2c(F)cccc2F)nn1-c1ccccc1`, the lipophilicity (logP) was determined as 3.2. The compound `Cc1ccc(Cl)c(NS(=O)(=O)c2nc(C)n(-c3ccccc3)n2)c1Cl` displayed a log partition coefficient (logP) of 4.4.

Assay in the next series: not given
Details: not given
The source holds these as a separate data set.
`COc1ccc2c(c1)OC[C@]1(O)c3cc4c(cc3O[C@H]21)OCO4`: the logP worked out at 2.58. For the compound `COc1ccc([C@@H]2COc3cc(O)ccc3C2)c(O)c1`, the lipophilicity (logP) turned out to be 2.44. Same read-out and setting: the same measure for `CC1(C)C=Cc2c(ccc3c2O[C@H]2c4ccc(O)cc4OC[C@@H]32)O1` (relative stereo): 3.58.

Assay in another series: not given
Details: not given
This is another data set of the same source.
Compound `Cc1nc(NCCCO)c(C#N)cc1-c1ccccc1` displayed a logP of 2.72.

Compound `Cc1nc(NCC(C)O)c(C#N)cc1-c1ccccc1` (stereo unspecified) yielded a logP of 2.72.

`COc1ccc(-c2cc(C#N)c(Cl)nc2C)cc1OC` had a log partition coefficient (logP) of 2.86.

Assay in another series: not given
Details: not given
This is another data set of the same source.
`CCCC1COC(Cn2cncn2)(c2ccc(Cl)cc2Cl)O1` (stereo unspecified): the logP was 3.4.

For `OC(Cn1cncn1)(c1ccc(F)cc1)c1ccccc1F` (stereo unspecified), the logP stood at 2.3. Compound `FC(F)C(F)(F)OCC1COC(Cn2cncn2)(c2ccc(Cl)cc2Cl)O1` (stereo unspecified) came in with a lipophilicity (logP) of 3.2.

A short description of another series: method code SF, from DOI: 10.1016/0168-3659(92)90078-6. Particulars: pH 7.0.
The compound `Cc1ccccc1C(=O)OCC1CCC(n2cnc3c(O)ncnc32)O1` (stereo unspecified) had a logD of 1.02. Still for that read-out and setting: the same measure for `CCCCC(=O)OC[C@@H]1CC[C@H](n2cnc3c(=O)[nH]cnc32)O1`: 0.65; for `CCCC(=O)OC[C@@H]1CC[C@H](n2cnc3c(=O)[nH]cnc32)O1`: 0.11.

The next series in a line: method code SF-RC, from DOI: 10.1016/j.nucmedbio.2006.06.006, PMID: 16934700. Particulars: pH 7.4.
The compound `FCCCNc1ccc(-c2cc3ccccc3s2)cc1` came in with a log distribution coefficient (logD) of 3.56. Still for that read-out and setting: to `FCCCOc1ccc(-c2cc3ccccc3s2)cc1` belongs 2.88. Consider `COc1ccc(-c2cc3ccccc3s2)cc1`, for which the pH-dependent lipophilicity (logD) was found to be 3.07.

Assay in another series: not given
Details: not given
The source holds these as a separate data set.
On to `Cc1cc(C)cc(OP(=O)(Oc2cc(C)cc(C)c2)Oc2cc(C)cc(C)c2)c1`, for which the logP came out at 5.26.

In turn, `CCCCC(CC)COP(=O)(Oc1ccccc1)Oc1ccccc1` (stereo unspecified) had a logP of 5. On the same count and under the same terms, the same measure for `CCCCOP(=O)(OCCCC)Oc1ccccc1`: 3.23.

Assay in a further series: not given
Details: not given
The source holds these as a separate data set.
For `CC1(C)S[C@@H]2[C@H](NC(=O)C(C(=O)Oc3ccccc3)c3ccccc3)C(=O)N2[C@H]1C(=O)O` (stereo partly specified), the logP came to 3.14. In the case of `CC1(C)S[C@@H]2[C@H](NC(=O)[C@@H](c3ccccc3)S(=O)(=O)O)C(=O)N2[C@H]1C(=O)O`, the logP was 0.59. The compound `Cc1onc(-c2c(F)cccc2Cl)c1C(=O)N[C@@H]1C(=O)N2[C@@H]1SC(C)(C)[C@@H]2C(=O)O` showed a logP of 2.58.

The nature of a further series: method code SF-AS, from DOI: 10.1002/ps.2780160411.
Details: not given
With `CC(C)CCCCCOC(=O)COc1ccc(Cl)cc1Cl`, the logP was 5.73. Compound `COc1c(Br)cccc1C(=CC(=O)C(C)(C)C)n1cncn1` yielded a logP of 3.2. Still for that read-out and setting: to `CS(=O)(=O)NC(=O)c1cc(Oc2ccc(C(F)(F)F)cc2Cl)ccc1[N+](=O)[O-]` belongs 2.9.

Assay in the next series: not given
Details: not given
This is another data set of the same source.
In turn, `Clc1cccc(Cl)c1C=NN=c1ccn(CCc2c(Cl)cccc2Cl)cc1` displayed a logP of 4. On the same count and under the same terms, the same measure for `ON=C1CCN(CCCc2ccccc2)CC1`: 2.8; for `Clc1cccc(Cl)c1C=NN=c1ccn(CCCc2ccccc2)cc1`: 3.9.

A short description of another series: method code SF-HPLC, from DOI: 10.1248/cpb.47.1081, PMID: 10478463. Particulars: pH 6.5.
Turning to `CON=C(C(=O)NC1C(=O)N2C(C(=O)OC(C)OC(C)=O)=CCSC12)c1csc(N)n1` (stereo unspecified), the log distribution coefficient (logD) came out at 0.46. In turn, `CON=C(C(=O)NC1C(=O)N2C(C(=O)OC(C)OC(=O)OC3CCCCC3)=CCSC12)c1csc(N)n1` (stereo unspecified) gave a log distribution coefficient (logD) of 2.52. The compound `CON=C(C(=O)NC1C(=O)N2C(C(=O)OC(C)OC(=O)OC(C)C)=CCSC12)c1csc(N)n1` (stereo unspecified) had a log distribution coefficient (logD) of 1.37.

A short description of another series: method code SF-AS, from DOI: 10.1016/j.bmc.2004.10.037, PMID: 15653345.
Details: not given
In turn, `CCOC(=O)N1CCN(Cc2ccc(O)c3ncccc23)CC1` displayed a logP of 1.57. On to `C#CCN1CCN(Cc2ccc(O)c3ncccc23)CC1`, for which the logP turned out to be 1.79. Compound `C#CCNC(Cc1ccc(O)c2ncccc12)C(=O)OCC` (stereo unspecified) registered a logP of 0.71.

Assay in the next series: not given
Details: not given
The source holds these as a separate data set.
Compound `CN(CCF)c1ccc2cc(CC=C(C#N)C#N)ccc2c1` gave a lipophilicity (logP) of 3.71. Still for that read-out and setting: to `CNc1ccc(-c2ccc3cc(OCC(O)CF)ccc3n2)cc1` (stereo unspecified) belongs 2.32; to `Nc1ccc(-c2ccc3cc(OCCF)ccc3n2)cc1`, 2.4.

A further series is described as follows: method code SF-AS, from DOI: 10.1021/jm00395a009, PMID: 3681892. Particulars: pH 7.4.
Regarding `O=c1c(F)cn(C2CCCO2)c(=O)n1Cc1ccccc1` (stereo unspecified), the logD turned out to be 1.38.

As to `CC(=O)OC[C@H]1O[C@@H](n2ccc(=O)[nH]c2=O)[C@H](OC(C)=O)[C@@H]1OC(C)=O`, the logD was -0.36. `COCC1OC(n2ccc(=O)n(Cc3ccccc3)c2=O)C(OC)C1OC` (stereo unspecified): the pH-dependent lipophilicity (logD) is 1.81.

The nature of the next series: method code SF-AS, from DOI: 10.1163/156856796x00098. The settings on record: pH 7.4.
As for `CCOP(=O)(CC(C)(C)[N+]([O-])=Cc1ccc(Cl)cc1)OCC`, the pH-dependent lipophilicity (logD) was 2.29. As to `CCOP(=O)(CC(C)(C)[N+]([O-])=Cc1cc[n+]([O-])cc1)OCC`, the logD was -0.74. In the case of `CCOP(=O)(CC(C)(C)[N+]([O-])=Cc1ccccc1)OCC`, the log distribution coefficient (logD) amounted to 1.

Assay in another series: not given
Details: not given
This is another data set of the same source.
With `Cc1cn(C2CC(N=[N+]=[N-])C(COC(=O)C(=O)N3CCCC3C(=O)O)O2)c(=O)[nH]c1=O` (stereo unspecified), the lipophilicity (logP) stood at 0.16. As to `Cc1cn(C2CC(N=[N+]=[N-])C(COC(=O)C(=O)NC(C(=O)O)C(C)C)O2)c(=O)[nH]c1=O` (stereo unspecified), the logP is 0.68. Take `Cc1cn(C2CC(N=[N+]=[N-])C(COC(=O)C(=O)NC(CC(C)C)C(=O)O)O2)c(=O)[nH]c1=O` (stereo unspecified): the logP came out at 1.12.
